Data: article PMC9292294 (Chemmedchem, 2021)

Assays:
FXIIa = FXIIa (Homo sapiens, UniProt P00748); assay: Medium‐throughput screening; assay type: biochemical; settings: read-out: Inhibition @100 nM [in MTS] FXIIa
thrombin (FIIa) = thrombin (FIIa) (Homo sapiens, UniProt P00734); assay: Medium‐throughput screening; assay type: biochemical; settings: read-out: Inhibition @100 nM [in MTS] FIIa
porcine trypsin = porcine trypsin (Sus scrofa, UniProt P00761); assay: Trypsin inhibition assay, fluorogenic substrate Z‐Gly‐Gly‐Arg‐AMC; assay type: biochemical; settings: for inhibition at 5 µM: read-out: Trypsin inhibition % at 5 μM
[1] = molecular target: human α‐thrombin (factor IIa) (Homo sapiens, UniProt P00734); assay type: biochemical
human β‐FXIIa = human β‐FXIIa (Homo sapiens, UniProt P00748); assay type: biochemical
human Factor Xa = human Factor Xa (Homo sapiens, UniProt P00742); assay: FXa inhibition assay, fluorogenic substrate Boc‐Ile‐Glu‐Gly‐Arg‐AMC; assay type: biochemical
human pooled plasma = assay: In vitro plasma coagulation assay, activated partial thromboplastin time; settings: 200 μM, fold increase compared to DMSO
human plasma β‐FXIIa = human plasma β‐FXIIa (Homo sapiens, UniProt P00748); assay: Mass‐shift analysis of the covalent FXIIa‐inhibitor complex by SEC/ESI‐MS; assay type: binding; settings: 15 min incubation, enzyme:inhibitor 1 : 20
human plasma β‐FXIIa, sequence (P00748 373-615 limits assumed, other chains not shown): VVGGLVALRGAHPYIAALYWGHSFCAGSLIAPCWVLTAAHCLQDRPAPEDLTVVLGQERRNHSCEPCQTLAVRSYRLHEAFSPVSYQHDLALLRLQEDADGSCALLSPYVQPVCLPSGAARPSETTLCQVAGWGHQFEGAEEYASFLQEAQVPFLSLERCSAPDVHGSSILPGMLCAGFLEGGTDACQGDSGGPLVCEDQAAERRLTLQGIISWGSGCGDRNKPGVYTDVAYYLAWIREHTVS

porcine trypsin, sequence (P00761 9-231): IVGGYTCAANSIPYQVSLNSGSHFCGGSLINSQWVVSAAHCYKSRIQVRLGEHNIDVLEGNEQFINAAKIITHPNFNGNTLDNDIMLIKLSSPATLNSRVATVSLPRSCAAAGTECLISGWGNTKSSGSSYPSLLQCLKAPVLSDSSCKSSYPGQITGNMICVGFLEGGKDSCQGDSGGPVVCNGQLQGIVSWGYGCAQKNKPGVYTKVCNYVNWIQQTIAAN
FXIIa, sequence (P00748 373-615 limits assumed, other chains not shown): as the sequence (P00748 373-615 limits assumed, other chains not shown) above
human β‐FXIIa, sequence (P00748 373-615 limits assumed, other chains not shown): as above
human Factor Xa, sequence (P00742 235-488 limits assumed): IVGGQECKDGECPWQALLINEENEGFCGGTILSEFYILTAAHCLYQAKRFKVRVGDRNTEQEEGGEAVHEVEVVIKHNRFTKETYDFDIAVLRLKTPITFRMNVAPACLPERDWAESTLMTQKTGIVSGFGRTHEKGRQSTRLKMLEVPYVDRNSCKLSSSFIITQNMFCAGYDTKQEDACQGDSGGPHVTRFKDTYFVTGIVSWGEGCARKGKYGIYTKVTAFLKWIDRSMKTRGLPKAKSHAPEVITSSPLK
human Factor Xa, sequence (P00742 41-179 limits assumed): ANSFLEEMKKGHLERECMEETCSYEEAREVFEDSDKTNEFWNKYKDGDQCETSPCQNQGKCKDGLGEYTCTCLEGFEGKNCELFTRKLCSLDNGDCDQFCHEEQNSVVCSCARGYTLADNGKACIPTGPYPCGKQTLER

| Structure (SMILES) | inhibition at 0.1 µM (FXIIa) [%] | inhibition at 0.1 µM (thrombin (FIIa)) [%] | IC50 (porcine trypsin) [µM] | IC50 [1] [µM] | IC50 (human β‐FXIIa) [µM] | IC50 (human Factor Xa) [µM] | mass shift of FXIIa (acyl moiety adduct) (human plasma β‐FXIIa) [Da] | fold improved FXIIa inhibitory activity (human β‐FXIIa; versus parent 33 h (122 nM vs. 33 nM)) [fold] | inhibition at 5 µM (porcine trypsin) [%] | inhibition at 1 µM (human Factor Xa; read-out: FXa inhibition % at 1 μM) [%] | aPTT, fold (human pooled plasma) [fold] |
| --- | --- | --- | --- | --- | --- | --- | --- | --- | --- | --- | --- |
| Nc1nc(-c2ccccn2)nn1C(=O)Cc1ccccc1I [32 a, 1‐(5‐Amino‐3‐(pyridin‐2‐yl)‐1H‐1,2,4‐triazol‐1‐yl)‐2‐(2‐iodophenyl)ethan‐1‐one] | 54 | 2 | > 5 | – | – | – | – | – | – | – | – |
| Cc1cccc(-c2nc(N)n(C(=O)Cc3ccccc3I)n2)n1 [32 b, 1‐(5‐Amino‐3‐(6‐methylpyridin‐2‐yl)‐1H‐1,2,4‐triazol‐1‐yl)‐2‐(2‐iodophenyl)ethan‐1‐one] | 54 | 0 | > 5 | > 5 | 0.073 ± 0.022 | > 5 | – | – | – | – | – |
| Nc1nc(-c2cnccn2)nn1C(=O)Cc1ccccc1I [32 c, 1‐(5‐Amino‐3‐(pyrazin‐2‐yl)‐1H‐1,2,4‐triazol‐1‐yl)‐2‐(2‐iodophenyl)ethan‐1‐one] | 75 | 15 | > 5 | 1.69 ± 0.167 | 0.065 ± 0.009 | > 5 | – | – | – | – | – |
| Cc1nc(-c2cccs2)ccc1-c1nc(N)n(C(=O)Cc2ccccc2I)n1 [32 d, 1‐(5‐Amino‐3‐(2‐methyl‐6‐(thiophen‐2‐yl)pyridin‐3‐yl)‐1H‐1,2,4‐triazol‐1‐yl)‐2‐(2‐iodophenyl)‐ethan‐1‐one] | 8 | 0 | > 5 | > 5 | 0.716 ± 0.082 | > 5 | – | – | – | – | – |
| CC(C)(C)c1nc(N)n(C(=O)Cc2ccccc2I)n1 [32 e, 1‐(5‐Amino‐3‐(tert‐butyl)‐1H‐1,2,4‐triazol‐1‐yl)‐2‐(2‐iodophenyl)ethan‐1‐one] | 3 | 1 | > 5 | > 5 | > 5 | > 5 | – | – | – | – | – |
| Nc1nc(-c2ccccn2)nn1C(=O)[C@H]1CCCc2ccccc21 [33 a, (S)‐(5‐Amino‐3‐(pyridin‐2‐yl)‐1H‐1,2,4‐triazol‐1‐yl)(1,2,3,4‐tetrahydro‐naphthalen‐1‐yl)‐methanone] | 73 | 10 | > 5 | – | – | – | – | – | – | – | – |
| Nc1nc(-c2cnccn2)nn1C(=O)[C@H]1CCCc2ccccc21 [33 c, (S)‐(5‐Amino‐3‐(pyrazin‐2‐yl)‐1H‐1,2,4‐triazol‐1‐yl)(1,2,3,4‐tetrahydronaphthalen‐1‐yl)methanone] | 80 | 36 | > 5 | 0.143 ± 0.005 | 0.106 ± 0.013 | > 5 | – | – | – | – | 2.7 |
| CC(C)(C)c1nc(N)n(C(=O)[C@H]2CCCc3ccccc32)n1 [33 e, (S)‐(5‐Amino‐3‐(tert‐butyl)‐1H‐1,2,4‐triazol‐1‐yl)(1,2,3,4‐tetrahydronaphthalen‐1‐yl)methanone] | 0 | 1 | > 5 | > 5 | > 5 | > 5 | – | – | – | – | – |
| Cc1nc2ccccc2nc1-c1nc(N)n(C(=O)[C@H]2CCCc3ccccc32)n1 [33 h, (S)‐(5‐Amino‐3‐(3‐methylquinoxalin‐2‐yl)‐1H‐1,2,4‐triazol‐1‐yl)(1,2,3,4‐tetrahydronaphthalen‐1‐yl)methanone] | 81 | 0 | > 5 | > 5 | 0.122 ± 0.035 | > 5 | – | – | – | – | – |
| Nc1nc(-c2cnc3ccccc3n2)nn1C(=O)[C@H]1CCCc2ccccc21 [39 a, (S)‐(5‐Amino‐3‐(quinoxalin‐2‐yl)‐1H‐1,2,4‐triazol‐1‐yl)(1,2,3,4‐tetrahydronaphthalen‐1‐yl)‐methanone] | – | – | – | > 5 | 0.033 ± 0.007 | > 5 | – | 3.7 | 32 | – | – |
| Nc1nc(-c2cnc3ccccc3n2)nn1C(=O)c1cccc2ccccc12 [39 b, (5‐Amino‐3‐(quinoxalin‐2‐yl)‐1H‐1,2,4‐triazol‐1‐yl)(naphthalen‐1‐yl)methanone] | – | – | > 5 | > 5 | – | > 5 | – | – | – | – | – |
| Nc1nc(-c2ccc3ccccc3n2)nn1C(=O)c1ccccc1 [40 a, (5‐Amino‐3‐(quinoline‐2‐yl)‐1H‐1,2,4‐triazol‐1‐yl)(phenyl)methanone] | – | – | > 5 | 0.124 ± 0.01 | 0.013 ± 0.002 | > 5 | – | – | – | – | – |
| Nc1nc(-c2ccc3ccccc3n2)nn1C(=O)c1cccc2ccccc12 [40 b, (5‐Amino‐3‐(quinolin‐2‐yl)‐1H‐1,2,4‐triazol‐1‐yl)(naphthalen‐1‐yl)methanone] | – | – | > 5 | 0.348 ± 0.015 | 0.008 ± 0.002 | – | – | – | – | – | – |
| Nc1nc(-c2nccc3ccccc23)nn1C(=O)c1ccccc1 [41 a, (5‐Amino‐3‐(isoquinolin‐1‐yl)‐1H‐1,2,4‐triazol‐1‐yl)(phenyl)methanone] | – | – | > 5 | 0.063 ± 0.001 | 0.236 ± 0.005 | > 5 | – | – | – | – | – |
| [H]/N=C(/N)c1ccc(NCc2nc3cc(C(=O)N(CCC(=O)O)c4ccccn4)ccc3n2C)cc1 [Dabigatran, reference compound] | -1 | 91 | – | – | > 5 | – | – | – | 59 | 34 | – |

Continued, in another order:

| inhibition at 0.1 µM (FXIIa) [%] | inhibition at 0.1 µM (thrombin (FIIa)) [%] | IC50 (porcine trypsin) [µM] | IC50 [1] [µM] | IC50 (human β‐FXIIa) [µM] | IC50 (human Factor Xa) [µM] | mass shift of FXIIa (acyl moiety adduct) (human plasma β‐FXIIa) [Da] | fold improved FXIIa inhibitory activity (human β‐FXIIa; versus parent 33 h (122 nM vs. 33 nM)) [fold] | inhibition at 5 µM (porcine trypsin) [%] | inhibition at 1 µM (human Factor Xa; read-out: FXa inhibition % at 1 μM) [%] | Structure (SMILES) | aPTT, fold (human pooled plasma) [fold] |
| --- | --- | --- | --- | --- | --- | --- | --- | --- | --- | --- | --- |
| 36 | 5 | > 5 | 0.819 ± 0.015 | 0.214 ± 0.035 | > 5 | – | – | – | – | Cc1cccc(-c2nc(N)n(C(=O)[C@H]3CCCc4ccccc43)n2)n1 [33 b, (S)‐(5‐Amino‐3‐(6‐methylpyridin‐2‐yl)‐1H‐1,2,4‐triazol‐1‐yl)(1,2,3,4‐tetrahydronaphthalen‐1‐yl)‐methanone] | – |
| 26 | 0 | > 5 | > 5 | 1.14 ± 0.334 | > 5 | – | – | – | – | Cc1nc(-c2cccs2)ccc1-c1nc(N)n(C(=O)[C@H]2CCCc3ccccc32)n1 [33 d, (S)‐(5‐Amino‐3‐(2‐methyl‐6‐(thiophen‐2‐yl)pyridin‐3‐yl)‐1H‐1,2,4‐triazol‐1‐yl)(1,2,3,4‐tetrahydro‐naphthalen‐1‐yl)methanone] | – |
| 29 | 0 | > 5 | > 5 | ~2 | > 5 | – | – | – | – | Nc1nc(-c2ccc(F)cc2)nn1C(=O)[C@H]1CCCc2ccccc21 [33 f, (S)‐(5‐Amino‐3‐(4‐fluorophenyl)‐1H‐1,2,4‐triazol‐1‐yl)(1,2,3,4‐tetrahydronaphthalen‐1‐yl)‐methanone] | – |
| 94 | 5 | > 5 | 1.01 ± 0.155 | 0.033 ± 0.001 | > 5 | 158.2 | – | – | – | Nc1nc(-c2ccc3ccccc3n2)nn1C(=O)[C@H]1CCCc2ccccc21 [33 g, (S)‐(5‐Amino‐3‐(quinolin‐2‐yl)‐1H‐1,2,4‐triazol‐1‐yl)(1,2,3,4‐tetrahydronaphthalen‐1‐yl)‐methanone] | – |
| 14 | 62 | > 5 | 0.038 ± 0.009 | 0.547 ± 0.058 | > 5 | – | – | – | – | Nc1nc(-c2nccc3ccccc23)nn1C(=O)[C@H]1CCCc2ccccc21 [33 i, (S)‐(5‐Amino‐3‐(isoquinolin‐1‐yl)‐1H‐1,2,4‐triazol‐1‐yl)(1,2,3,4‐tetrahydronaphthalen‐1‐yl)‐methanone] | – |
| 8 | 1 | > 5 | 5.7 ± 0.33 | 1.52 ± 0.182 | > 5 | – | – | – | – | Nc1nc(-c2ccccc2C(=O)N2CCCCC2)nn1C(=O)[C@H]1CCCc2ccccc21 [33 j, (S)‐(2‐(5‐Amino‐1‐(1,2,3,4‐tetrahydronaphthalene‐1‐carbonyl)‐1H‐1,2,4‐triazol‐3‐yl)phenyl)‐(piperidin‐1‐yl)methanone] | – |
| – | – | > 5 | – | > 5 | > 5 | – | – | – | – | Nc1nc(-c2nccc3ccccc23)nn1C(=O)c1ccc2ccccc2c1 [41 c, (5‐Amino‐3‐(isoquinolin‐1‐yl)‐1H‐1,2,4‐triazol‐1‐yl)(naphthalen‐2‐yl)methanone] | – |
| -1 | 1 | > 5 | – | > 5 | – | – | – | – | – | O=C(NC[C@H]1CN(c2ccc(N3CCOCC3=O)cc2)C(=O)O1)c1ccc(Cl)s1 [Rivaroxaban, reference compound] | – |
